Data on 26 molecules can be found in PubChem BioAssay (NCI).

The structures appear in SMILES notation.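 Cultured in 96-well plates, cells were exposed to test compound for 48 hours across five concentrations. GI50 = concentration required for 50% inhibition of growth. TGI is the concentration that stops growth completely.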

Common to all, as to assay: growth of human tumour cells (NCI), 48 h
For experiment [1], the system named is COLO 205 colon.
Experiment [2] concerns HCT-116 colon.
The test system of experiment [3] is HS 578T breast.
The subject of experiment [4] is KM12 colon.
For experiment [5], the system named is MCF7 breast.
The subject of experiment [6] is NCI-H226 lung.
Experiment [7] relates to NCI-H460 lung.
Experiment [8] relates to OVCAR-3 ovarian.
The subject of experiment [9] is OVCAR-5 ovarian.
The subject of experiment [10] is HL-60(TB) leukemia.

Turning to `CCS(=O)(=O)N1CCN(c2ccc(Nc3ncc(C(N)=O)c(NC4CC4)n3)cc2)CC1`, the GI50 is 2.61 µM in experiment [1]; 5.84 µM in experiment [2]; 10.9 µM in experiment [3]; 0.812 µM in [4]; 4.77 µM in [5]; 7.12 µM in experiment [6]. The GI50 in experiment [7] is 15.3 µM; in [8], 5.73 µM; in experiment [9], 36.8 µM. Also, the TGI was 21.2 µM in experiment [1]; more than 100 µM in [2]; 57.3 µM in experiment [3]; 18.5 µM in experiment [4]; more than 100 µM in experiment [5]; 35.9 µM in experiment [6]. The TGI was 59.9 µM in experiment [7], 31.4 µM in experiment [8] and more than 100 µM in experiment [9].

Turning to `FC(F)(F)c1nc(Br)[nH]c1C(F)(F)F`, the TGI in [1], in [2], in experiment [10], in experiment [4], in [6] and in experiment [7] was more than 100 µM throughout. In addition, the TGI in experiment [8] and in experiment [9] was more than 100 µM in each case.

On to `N/C(=N/S(=O)(=O)c1cc(C(=O)Nc2ccc(F)cc2)c(Cl)cc1SCc1ccccc1)Nc1ccccc1O`, for which the GI50 is 4.1 µM in experiment [1]; 1.95 µM in experiment [2]; 1.72 µM in experiment [3]; 1.79 µM in experiment [4]; 2.79 µM in experiment [5]; 16.3 µM in experiment [6]. In addition, the GI50 in experiment [7] was 2.93 µM; in [8] it was 1.44 µM; in [9] it was 16.4 µM. Moreover, the TGI in experiment [1] was more than 100 µM; in experiment [2], 4 µM; in experiment [3], 3.8 µM; in experiment [4], 3.33 µM; in experiment [5] it was 6.13 µM; in experiment [6], 30.9 µM. Also, the TGI in experiment [7] was 8.29 µM; in [8], 2.81 µM; in experiment [9], 31.3 µM.

`O=C(NCc1ccccc1)C1C(=O)C(=O)N(Cc2ccccc2)C1=O` (stereo unspecified): the TGI in experiment [1], in experiment [2], in experiment [10], in [4], in [6] and in [7] was more than 100 µM throughout. Also, the TGI in [8] and in experiment [9] was more than 100 µM each time.

In the case of `Cc1ccc(NC(=O)CCC(=O)C2Cc3ccccc3C2=O)cc1C` (stereo unspecified), the TGI in [1], in experiment [2], in experiment [10], in [4], in experiment [6] and in [7] was more than 100 µM throughout. Moreover, the TGI in experiment [8] and in experiment [9] was more than 100 µM each time.

For `C=C1C(O)C2CC(C)(C)C(=O)C2=C(CC(C)C)C12CC2` (stereo unspecified), the GI50 in experiment [1], in [2], in experiment [3], in [4], in [5] and in [7] was more than 100 µM in each case. Further, the GI50 in experiment [8] and in [9] was more than 100 µM each time. The TGI in experiment [1], in experiment [2], in [3], in experiment [4], in [5] and in [7] was more than 100 µM throughout. For the same molecule, the TGI in experiment [8] and in [9] was more than 100 µM in each case.

Consider `O=C(O)CCSC(=O)Nc1ccccc1`, for which the TGI in [1], in experiment [2], in experiment [10], in [4], in experiment [6] and in [7] was more than 100 µM each time. Further, the TGI in experiment [8] and in experiment [9] was more than 100 µM throughout.

As for `CCOC(=O)CCn1cnc(N)n1`, the TGI in experiment [1], in [2], in [10], in experiment [4], in experiment [6] and in [7] was more than 100 µM in each case. The TGI in [8] and in experiment [9] was more than 100 µM each time.

With `C=C1C(C(=O)O)C1C(=O)O` (stereo unspecified), the TGI in [2], in experiment [10], in experiment [4], in experiment [6], in experiment [7] and in experiment [9] was more than 100 µM throughout.

As to `CCc1cccc(NC(=O)c2cc(/C=C/c3ccccc3)[nH]c(=S)n2)c1`, the TGI in [1], in [2], in experiment [10], in experiment [4], in [6] and in experiment [7] was more than 100 µM in each case. The TGI in experiment [8] and in experiment [9] was more than 100 µM throughout.

For `CC(=O)[CH-]C(=O)c1ccccc1.CC(=O)[CH-]C(=O)c1ccccc1.CC(=O)[CH-]C(=O)c1ccccc1.[Br-].[Zr+4]`, the GI50 in [1] was more than 100 µM; in experiment [10], 52.7 µM; in experiment [4], more than 100 µM; in experiment [7], 78.3 µM; in [8], 48.1 µM; in [9], 29.8 µM. Further, the TGI in experiment [1], in experiment [10], in experiment [4], in experiment [7], in experiment [8] and in experiment [9] was more than 100 µM in each case.

`N#CC(C#N)=C1CCC2C(=C(C#N)C#N)CCC12` (stereo unspecified): the TGI in [1], in experiment [2], in experiment [10], in [4], in [6] and in experiment [7] was more than 100 µM throughout. For the same molecule, the TGI in experiment [8] and in experiment [9] was more than 100 µM in each case.

With `CCc1ccccc1NC(=O)C(=O)C(C#N)c1c(Cl)cccc1Cl` (stereo unspecified), the TGI in experiment [2], in experiment [10], in [4], in [6] and in experiment [8] was more than 100 µM each time.

Regarding `O=C(OCc1ccccc1)n1cccc1`, the TGI in experiment [1], in experiment [2], in [10], in experiment [4], in experiment [6] and in [7] was more than 100 µM throughout. Also, the TGI in [8] and in experiment [9] was more than 100 µM throughout.

Turning to `CCCCNCCCCCNc1cc(OC)cc2cccnc12`, the GI50 is 17.2 µM in experiment [1]; 13.6 µM in experiment [2]; 21.7 µM in [3]; 39.3 µM in experiment [4]; more than 100 µM in experiment [5]; 23.8 µM in experiment [6]. Moreover, the GI50 in experiment [7] was 89.4 µM; in [8], 19 µM; in [9] it was 15.1 µM. For the same molecule, the TGI in [1] was 33.8 µM; in [2], 26.6 µM; in [3], 47.9 µM; in [4] it was more than 100 µM; in [5], more than 100 µM; in experiment [6], 64.5 µM. Besides, the TGI in experiment [7] is more than 100 µM; in experiment [8], 45.5 µM; in experiment [9], 30.9 µM.

As for `O=C(c1ccc(Nc2nccc(NCCCCNc3ccnc4cc(Cl)ccc34)n2)cc1)N1CCCCC1`, the GI50 in experiment [1] is 1.52 µM; in [2], 1.01 µM; in experiment [3] it was 1.8 µM; in experiment [4], 2.94 µM; in experiment [5] it was 1.83 µM; in [6], 3.59 µM. In addition, the values for the GI50 in experiment [7], in [8] and in experiment [9] were 0.475 µM, 1.92 µM and 4.32 µM, respectively. The TGI worked out at 3.25 µM in experiment [1]; 2.42 µM in [2]; 4.62 µM in [3]; 11 µM in [4]; 7.64 µM in [5]; 13.7 µM in experiment [6]. The TGI turned out to be 2.98 µM in experiment [7], 4.63 µM in [8] and 25.9 µM in experiment [9].

In the case of `COc1cc(NCCC2CCCCN2)c2ncccc2c1OC` (stereo unspecified), the GI50 is 10 µM in experiment [1]; 1.94 µM in [2]; 4.34 µM in [3]; 14.9 µM in experiment [4]; 3.19 µM in experiment [5]; 23.5 µM in [6]. For the same molecule, the GI50 in experiment [7] was 10.5 µM; in experiment [8], 2.13 µM; in experiment [9], 19.1 µM. Moreover, the TGI came out at 24.2 µM in experiment [1]; 3.7 µM in experiment [2]; 31.1 µM in [3]; 33.5 µM in experiment [4]; 15.2 µM in experiment [5]; 46.8 µM in [6]. Further, the figures for the TGI in experiment [7], in experiment [8] and in experiment [9] were 24.8 µM, 5.01 µM and 62.7 µM, respectively.

`O=C1CCc2ccc(O)c(c2)Oc2ccc(cc2)[C@@H]2O[C@@H]2CO1`: the TGI in [1], in [2], in experiment [10], in [4], in [6] and in experiment [8] was more than 100 µM in each case. Also, the TGI in [9] was more than 100 µM.

Consider `CC[P+]1(c2ccccc2)CCCCC1`, for which the TGI in experiment [1], in experiment [2], in [10], in experiment [4], in experiment [6] and in experiment [7] was more than 100 µM each time. The TGI in experiment [8] and in experiment [9] was more than 100 µM throughout.

As for `CN(C)CCNC(=O)c1cccc2c1nc(-c1ccncc1)c1ccccc12`, the TGI in experiment [1] is 9.66 µM; in [2] it was 9.23 µM; in experiment [10] it was more than 100 µM; in [4], 25.6 µM; in experiment [6] it was 10.5 µM; in [7], 3.05 µM. Also, the TGI in experiment [8] was found to be 30.4 µM; in experiment [9] it was 23.7 µM.

Consider `CNC(=O)NCCN1N=C(C)/C(=C\c2ccccc2)CC1=O`, for which the TGI in experiment [2], in experiment [10], in [4], in experiment [6], in experiment [7] and in experiment [8] was more than 100 µM in each case. The same molecule had a TGI in experiment [9] of more than 100 µM.

Regarding `O=C(O)c1cc(Cl)cc(Cc2cc(Cl)cc(C(=O)O)c2O)c1O`, the TGI in experiment [1], in experiment [2], in experiment [3], in [4], in [5] and in experiment [7] was more than 100 µM each time. Further, the TGI in experiment [8] and in experiment [9] was more than 100 µM each time.

For the molecule `CCOC(=O)c1cc(C(=O)c2cc(OC)c(OC)c(OC)c2)n2ccc(-c3cc[n+](CC(=O)c4cc(OC)c(OC)c(OC)c4)cc3)cc12`, the GI50 was 1.72 µM in experiment [2]; 2.58 µM in [10]; 1.74 µM in experiment [3]; 1.81 µM in experiment [4]; 2.37 µM in [6]; 2 µM in experiment [7]. Further, the GI50 in [8] was 1.83 µM; in experiment [9], 1.84 µM. In addition, the TGI came out at 3.5 µM in [2]; 5.75 µM in experiment [10]; 4.29 µM in [3]; 3.42 µM in [4]; 6.62 µM in [6]; 3.78 µM in experiment [7]. Also, the TGI in experiment [8] was found to be 3.6 µM; in [9] it was 5.24 µM.

Take `N#CCC(=O)Nc1ccccc1O`: the TGI in [1], in experiment [2], in [10], in experiment [4], in [6] and in experiment [7] was more than 100 µM throughout. Also, the TGI in experiment [8] and in [9] was more than 100 µM throughout.

With `Oc1ccc(/C=N/NC(=S)Nc2cccnc2)nc1`, the TGI in experiment [1] is more than 100 µM; in experiment [2], more than 100 µM; in [10] it was 14.4 µM; in [4], more than 100 µM; in [5], more than 39 µM; in [6], more than 100 µM. Further, the TGI in experiment [8] and in experiment [9] was more than 100 µM throughout.

Regarding `C=CCC1C(=O)CC2(C)C(CC=C)C(=O)CC12C` (stereo unspecified), the TGI in [1], in experiment [2], in [10], in experiment [4], in experiment [6] and in [7] was more than 100 µM in each case. Also, the TGI in [8] and in experiment [9] was more than 100 µM throughout.
